Data reported in BigSolDB 2.1.

CC(=O)c1cnccn1
solubility (mole fraction)
Details	268.35 K	273.15 K	278.15 K	283.21 K	288.15 K	293.05 K	298.15 K	303.15 K	308.35 K
in DMF	0.0822	0.0972	0.116	0.139	0.165	0.194	0.23	0.269	0.314
in NMP	0.117	0.129	0.15	0.174	0.203	0.234	0.271	0.31	0.355
in acetone	0.0511	0.0601	0.0727	0.0826	0.0977	0.119	0.137	0.153	0.174
in ethanol	0.0073	0.0111	0.0136	0.0178	0.0231	0.0347	0.0433	0.0542	0.0727
in ethyl acetate	0.0636	0.0746	0.0889	0.101	0.116	0.144	0.164	0.186	0.209
in isopropanol	0.0052	0.0075	0.0106	0.0128	0.0195	0.0299	0.0382	0.0509	0.0698
in methanol	0.013	0.0156	0.0179	0.0224	0.0281	0.0405	0.0485	0.0596	0.077
